{"source": "patent US20260137819A1", "about": "(Radionetics Oncology, Inc., priority 2022, published 2026)", "note": "Starred links: 1 amine or outer side, 2 acyl side, 3 side chain; linkers in the order of their positions; H or OH if unused. Non-standard residues stand in square brackets, D forms with d. Residues, ends and D or L forms follow the SMILES beside them. Groups on a side chain read outwards from the residue. *: point of attachment. X1 = COc1cc2c(cc1-c1cccc(N*)c1)-c1c(c(C(=O)N3CCOCC3(C)C)nn1-c1cc(Cl)cc(Cl)c1)CO2; DOTA = O=C(O)CN1CCN(CC(=O)O)CCN(CC(=O)*)CCN(CC(=O)O)CC1; Suc = O=C(CCC(=O)[*:2])[*:1]", "data": [{"biological_target": "T1, human follicle-stimulating hormone receptor (FSHR) (Homo sapiens, UniProt P23945)", "T1 construct": "host or cells: CHO-K1", "T1 sequence (P23945 18-695)": "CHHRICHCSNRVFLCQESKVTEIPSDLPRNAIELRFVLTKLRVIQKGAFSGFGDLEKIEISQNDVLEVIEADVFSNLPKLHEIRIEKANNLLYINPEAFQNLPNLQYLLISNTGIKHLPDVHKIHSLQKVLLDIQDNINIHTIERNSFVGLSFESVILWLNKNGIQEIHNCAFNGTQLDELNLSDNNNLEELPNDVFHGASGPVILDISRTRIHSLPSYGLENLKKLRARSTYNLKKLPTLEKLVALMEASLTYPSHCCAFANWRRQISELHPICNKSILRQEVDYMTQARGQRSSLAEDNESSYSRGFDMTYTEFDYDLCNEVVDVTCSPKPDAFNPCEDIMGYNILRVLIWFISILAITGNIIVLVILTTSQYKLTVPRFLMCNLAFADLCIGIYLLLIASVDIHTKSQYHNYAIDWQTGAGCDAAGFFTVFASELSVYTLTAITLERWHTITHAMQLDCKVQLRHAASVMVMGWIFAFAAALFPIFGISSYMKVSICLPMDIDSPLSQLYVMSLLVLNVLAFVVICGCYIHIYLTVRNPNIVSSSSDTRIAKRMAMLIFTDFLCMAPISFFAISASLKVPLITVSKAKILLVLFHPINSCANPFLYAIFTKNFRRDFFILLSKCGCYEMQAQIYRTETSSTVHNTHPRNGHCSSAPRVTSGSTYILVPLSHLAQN", "test": "Measurement of agonist cAMP production by activation of human FSHR", "format": "cell-based", "conditions": "CHO-K1 human FSHR cells, 30 minutes at 37° C., HTRF cAMP kit; read-out: hFSHR Agonist cAMP EC50", "description": "Measurement of agonist cAMP production by activation of human FSHR\nTwo days prior to the assay, 5,000 CHO—K1 human FSHR cells (Eurofins #95-0119C2) stably expressing the functional human follicle-stimulating hormone receptor were plated in a 96-well tissue culture-treated plate in growth media supplemented with the appropriate selection agent. […] The cells were incubated for 30 minutes at 37° C. (the final concentrations of the compound ranged from 0-10,000 nM). After the 30-minute incubation at 37° C., lysis buffer (HRTF CAMP kit, Cisbio #62AM5PEB)w as added directly to the cells and incubated for 30-minutes at room temperature. The diluted lysate was transferred and CAMP detection and visualization antibodies (HRTF CAMP kit, Cisbio #62AM5PEB) were added and incubated for 1-24 hours at room temperature. The time-resolved fluorescent signal was read with a Tecan M1000Pro (Tecan) multiplate reader. The intracellular cAMP concentrations were calculated by regression to a standard curve and were plotted vs. the concentration of the agonists. The concentration of test compound or FSH required to generate a half maximal response EC50 were calculated using standard curve-fitting methods. All data manipulations were performed using GraphPad Prism v9.3.1 (GraphPad, San Diego, CA).", "units": {"EC50": "nM"}, "values": [{"smiles": "COc1cc2c(cc1-c1cncc(NC(=O)CCOCCNC(=O)CN3CCN(CC(=O)O)CCN(CC(=O)O)CCN(CC(=O)O)CC3)c1)-c1c(c(C(=O)N3CCOCC3(C)C)nn1-c1cc(Cl)cc(Cl)c1)CO2", "note": "[Compound 53, 2,2′,2″-(10-(2-((2-(3-((5-(1-(3,5-dichlorophenyl)-3-(3,3-dimethylmorpholine-4-carbonyl)-7-methoxy-1,4-dihydrochromeno[4,3-c]pyrazol-8-yl)pyridin-3-yl)amino)-3-oxopropoxy)ethyl)amino)-2-oxoethyl)-1,4,7,10-tetraazacyclododecane-1,4,7-triyl)triacetic acid--2,2,2-trifluoroacetic acid (1/1)]", "EC50": "< 10"}, {"smiles": "COc1cc2c(cc1-c1cccc(NC(=O)CCOCCOCCNC(=O)C3OC(CNC(=O)CN4CCN(CC(=O)O)CCN(CC(=O)O)CCN(CC(=O)O)CC4)C(O)C(O)C3O)c1)-c1c(c(C(=O)N3CCOCC3(C)C)nn1-c1cc(Cl)cc(Cl)c1)CO2", "note": "[Compound 21, 2,2′,2″-(10-(2-((((2S,3R,4R,5R,6S)-6-((2-(2-(3-((3-(1-(3,5-dichlorophenyl)-3-(3,3-dimethylmorpholine-4-carbonyl)-7-methoxy-1,4-dihydrochromeno|4,3-clpyrazol-8-yl)phenyl)amino)-3-oxopropoxy)ethoxy)ethyl)carbamoyl)-3,4,5-trihydroxytetrahydro-2H-pyran-2-yl)methyl)amino)-2-oxoethyl)-1,4,7,10-tetraazacyclododecane-1,4,7-triyl)triacetic acid]", "EC50": "< 10"}, {"smiles": "COc1cc2c(cc1-c1cccc(NC(=O)C3CCN(C(=O)CN4CCN(CC(=O)O)CCN(CC(=O)O)CCN(CC(=O)O)CC4)CC3)c1)-c1c(c(C(=O)N3CCOCC3(C)C)nn1-c1cc(Cl)cc(Cl)c1)CO2", "note": "[Compound 9, 2,2′,2″-(10-(2-(4-((3-(1-(3,5-dichlorophenyl)-3-(3,3-dimethylmorpholine-4-carbonyl)-7-methoxy-1,4-dihydrochromeno[4,3-c]pyrazol-8-yl)phenyl)carbamoyl)piperidin-1-yl)-2-oxoethyl)-1,4,7,10-tetraazacyclododecane-1,4,7-triyl)triacetic acid]", "EC50": "10 to 100"}, {"smiles": "COc1cc2c(cc1-c1cccc(NC(=O)CCC(=O)NCCCC[C@@H](NC(=O)[C@@H](CCC(=O)O)NC(=O)[C@@H](CCC(=O)O)NC(=O)[C@@H](CCC(=O)O)NC(=O)[C@@H](CCC(=O)O)NC(=O)[C@@H](C)NC(=O)CN3CCN(CC(=O)O)CCN(CC(=O)O)CCN(CC(=O)O)CC3)C(=O)N[C@H](C)C(N)=O)c1)-c1c(c(C(=O)N3CCOCC3(C)C)nn1-c1cc(Cl)cc(Cl)c1)CO2", "note": "[Compound 90, 2,2′,2″-(10-((4R,7R,10R,13R,16R,19R)-19-(((R)-1-amino-1-oxopropan-2yl)carbamoyl)-7,10,13,16-tetrakis(2-carboxyethyl)-28-((3-(1-(3,5-dichlorophenyl)-3-(3,3-dimethylmorpholine-4-carbonyl)-7-methoxy-1,4-dihydrochromeno|4,3-clpyrazol-8-yl)phenyl)amino)-4-methyl-2,5,8,11,14,17,25,28-octaoxo-3,6,9,12,15,18,24-heptaazaoctacosyl)-1,4,7,10-tetraazacyclododecane-1,4,7-triyl)triacetic acid] ({DOTA}-[dA][dE][dE][dE][dE][dK]([Suc-X1])[dA]-NH2)", "EC50": "10 to 100"}, {"smiles": "COc1cc2c(cc1-c1cccc(NC(=O)CONC(=O)CN3CCN(CC(=O)O)CCN(CC(=O)O)CCN(CC(=O)O)CC3)c1)-c1c(c(C(=O)N3CCOCC3(C)C)nn1-c1cc(Cl)cc(Cl)c1)CO2", "note": "[Compound 43]", "EC50": "10 to 100"}, {"smiles": "COc1cc2c(cc1-c1cncc(NC(=O)CCOCCOCCNC(=O)CN3CCN(CC(=O)O)CCN(CC(=O)O)CCN(CC(=O)O)CC3)c1)-c1c(c(C(=O)N3CCOCC3(C)C)nn1-c1cc(Cl)cc(Cl)c1)CO2", "note": "[Compound 52, 2,2′,2″-(10-(2-((2-(2-(3-((5-(1-(3,5-dichlorophenyl)-3-(3,3-dimethylmorpholine-4-carbonyl)-7-methoxy-1,4-dihydrochromeno[4,3-c]pyrazol-8-yl)pyridin-3-yl)amino)-3-oxopropoxy)ethoxy)ethyl)amino)-2-oxoethyl)-1,4,7,10-tetraazacyclododecane-1,4,7-triyl)triacetic acid--2,2,2-trifluoroacetic acid (1/1)]", "EC50": "< 10"}, {"smiles": "COc1cc2c(cc1-c1cccc(NC(=O)C3OC(CNC(=O)CN4CCN(CC(=O)O)CCN(CC(=O)O)CCN(CC(=O)O)CC4)C(O)C(O)C3O)c1)-c1c(c(C(=O)N3CCOCC3(C)C)nn1-c1cc(Cl)cc(Cl)c1)CO2", "note": "[Compound 34, 2,2′,2″-(10-(2-((((2S,3R,4R,5R,6S)-6-((3-(1-(3,5-dichlorophenyl)-3-(3,3dimethylmorpholine-4-carbonyl)-7-methoxy-1,4-dihydrochromeno|4,3-c]pyrazol-8-yl)phenyl)carbamoyl)-3,4,5-trihydroxytetrahydro-2H-pyran-2-yl)methyl)amino)-2-oxoethyl)-1,4,7,10-tetraazacyclododecane-1,4,7-triyl)triacetic acid]", "EC50": "10 to 100"}, {"smiles": "COc1cc2c(cc1-c1cccc(OCCOCCOCCOCCOCCNC(=O)[C@H](CS(=O)(=O)O)NC(=O)CN3CCN(CC(=O)O)CCN(CC(=O)O)CCN(CC(=O)O)CC3)c1)-c1c(c(C(=O)N3CC(=O)NCC3(C)C)nn1-c1cc(Cl)cc(Cl)c1)CO2", "note": "[Compound 75]", "EC50": "10 to 100"}, {"smiles": "COc1cc2c(cc1-c1cccc(NC(=O)NCCNC(=O)C[C@H](O)C[C@H](O)CCNC(=O)CN3CCN(CC(=O)O)CCN(CC(=O)O)CCN(CC(=O)O)CC3)c1)-c1c(c(C(=O)N3CCOCC3(C)C)nn1-c1cc(Cl)cc(Cl)c1)CO2", "note": "[Compound 14, 2,2′,2″-(10-(2-(((3R,5R)-7-((2-(3-(3-(1-(3,5-dichlorophenyl)-3-(3,3-dimethylmorpholine-4-carbonyl)-7-methoxy-1,4-dihydrochromeno[4,3-c]pyrazol-8-yl)phenyl)ureido)ethyl)amino)-3,5-dihydroxy-7-oxoheptyl)amino)-2-oxoethyl)-1,4,7,10-tetraazacyclododecane-1,4,7-triyl)triacetic acid]", "EC50": "< 10"}, {"smiles": "COc1cc2c(cc1-c1cccc(/C(C)=N/OCCNC(=O)CN3CCN(C(=O)CN4CCN(CC(=O)O)CCN(CC(=O)O)CCN(CC(=O)O)CC4)CC3)c1)-c1c(c(C(=O)N3CCOCC3(C)C)nn1-c1cc(Cl)cc(Cl)c1)CO2", "note": "[Compound 40]", "EC50": "10 to 100"}, {"smiles": "COc1cc2c(cc1-c1cccc(NC(=O)CC[C@@H](NC(=O)CN3CCN(CC(=O)O)CCN(CC(=O)O)CCN(CC(=O)O)CC3)C(=O)O)c1)-c1c(c(C(=O)N3CCOCC3(C)C)nn1-c1cc(Cl)cc(Cl)c1)CO2", "note": "[Compound 31]", "EC50": "10 to 100"}, {"smiles": "COc1cc2c(cc1-c1cncc(NC(=O)CCC(=O)N(CCOCCOCCC(=O)O)C3CCN(C(=O)CN4CCN(CC(=O)O)CCN(CC(=O)O)CCN(CC(=O)O)CC4)CC3)c1)-c1c(c(C(=O)N3CCOCC3(C)C)nn1-c1cc(F)cc(F)c1)CO2", "note": "[Compound 60, 2,2′,2″-(10-(2-(4-(N-(2-(2-(2-carboxyethoxy)ethoxy)ethyl)-4-((5-(1-(3,5-difluorophenyl)-3-(3,3-dimethylmorpholine-4-carbonyl)-7-methoxy-1,4-dihydrochromeno[4,3-c]pyrazol-8-yl)pyridin-3-yl)amino)-4-oxobutanamido)piperidin-1-yl)-2-oxoethyl)-1,4,7,10-tetraazacyclododecane-1,4,7-triyl)triacetic acid--formic acid (1/1)]", "EC50": "10 to 100"}]}]}
